Measurements from ChEMBL document CHEMBL4831527, “Structure-Based Design and Discovery of Pyridyl-Bearing Fused Bicyclic HIV-1 Inhibitors: Synthesis, Biological Characterization, and Molecular Modeling Studies” (J Med Chem, 2021).
The source made the active and inactive calls. The rule behind the calls is not given here.

Tests used:
[1] = system: Human immunodeficiency virus 1; test: Antiviral activity against HIV1 harboring reverse transcriptase E138K mutant infected in human MT4 cells assessed as protection against virus-induced cytopathic effect incubated for 5 days by MTT assay; format: functional, organism-based; conditions: Human immunodeficiency virus 1, MT4, 120 h
[2] = system: Human immunodeficiency virus 1; test: Antiviral activity against HIV1 harboring reverse transcriptase L100I mutant infected in human MT4 cells assessed as protection against virus-induced cytopathic effect incubated for 5 days by MTT assay; format: functional, organism-based; conditions: Human immunodeficiency virus 1, MT4, 120 h
[3] = Half life in human liver microsomes at 1 uM in presence of NADPH by LC-MS/MS analysis; format: ADME, Microsome
[4] = Cytotoxicity against mock-infected human MT4 cells assessed as reduction in cell viability measured after 5 days by MTT assay; format: cell-based; conditions: time 5 day
[5] = system: Human immunodeficiency virus 1; test: Potency index, ratio of ETR EC50 to test compound EC50 for antiviral activity against HIV1 harboring reverse transcriptase E138K mutant infected in human MT4 cells; format: functional
[6] = system: Human immunodeficiency virus 2; test: Antiviral activity against HIV2 ROD infected in human MT4 cells assessed as protection against virus-induced cytopathogenicity after 5 days by MTT assay; format: functional, organism-based; conditions: time 5.0 day
[7] = system: Human immunodeficiency virus 1; test: Antiviral activity against HIV1 harboring reverse transcriptase Y188L mutant infected in human MT4 cells assessed as protection against virus-induced cytopathic effect incubated for 5 days by MTT assay; format: functional, organism-based; conditions: Human immunodeficiency virus 1, MT4, 120 h
[8] = Selectivity index, ratio of CC50 for mock-infected human MT4 cells to EC50 for HIV1 RES056 infected in human MT4 cells; format: toxicity, cell-based; conditions: MT4 cells (mock-infected and HIV1 RES056 infected), read-out: Ratio CC50/EC50
[9] = system: Human immunodeficiency virus 1; test: Antiviral activity against HIV1 harboring reverse transcriptase Y181C mutant infected in human MT4 cells assessed as protection against virus-induced cytopathic effect incubated for 5 days by MTT assay; format: functional, organism-based; conditions: Human immunodeficiency virus 1, MT4, 120 h
[10] = system: Human immunodeficiency virus 1; test: Antiviral activity against HIV1 harboring reverse transcriptase K103N mutant infected in human MT4 cells assessed as protection against virus-induced cytopathic effect incubated for 5 days by MTT assay; format: functional, organism-based; conditions: Human immunodeficiency virus 1, MT4, 120 h
in vitro = conditions: human, liver microsomes
[11] = biological target: Human immunodeficiency virus type 1 reverse transcriptase (Human immunodeficiency virus 1, UniProt Q72547); test: Inhibition of wild type HIV1 p66/p51 reverse transcriptase using poly(rA) as template, oligo(dT)16 as primer and RNA/DNA as substrate measured after 40 mins by PICOGreen-dye based spectrofluorimetry analysis
[12] = system: Human immunodeficiency virus 1; test: Antiviral activity against HIV1 RES056 infected in human MT4 cells assessed as protection against virus-induced cytopathic effect incubated for 5 days by MTT assay; format: functional, organism-based; conditions: Human immunodeficiency virus 1, RES056, MT4, 120 h
[13] = system: Human immunodeficiency virus 1; test: Antiviral activity against HIV1 3B infected in human MT4 cells assessed as protection against virus-induced cytopathic effect incubated for 5 days by MTT assay; format: functional, organism-based; conditions: Human immunodeficiency virus 1, 3B, MT4, 120 h
[14] = Selectivity index, ratio of CC50 for mock-infected human MT4 cells to EC50 for HIV1 3B infected in human MT4 cells; format: toxicity, cell-based; conditions: MT4 cells (mock-infected and HIV1 3B infected), read-out: Ratio CC50/EC50
[15] = system: Human immunodeficiency virus 1; test: Antiviral activity against HIV1 harboring reverse transcriptase F227L/V106A double mutant infected in human MT4 cells assessed as protection against virus-induced cytopathic effect incubated for 5 days by MTT assay; format: functional, organism-based; conditions: Human immunodeficiency virus 1, MT4, 120 h
[16] = system: Human immunodeficiency virus 1; test: Potency index, ratio of EFV EC50 to test compound EC50 for antiviral activity against HIV1 RES056 infected in human MT4 cells; format: functional

SMILES	EC50 [1] [nM]	EC50 [2] [nM]	half-life at 1 µM [3] [min]	CC50 at 120 h [4] [nM]	Ratio EC50 [5]	Activity [6]	EC50 [7] [nM]	selectivity ratio [8]	EC50 [9] [nM]	EC50 [10] [nM]	CLint scaled at 1 h, 1 µM (in vitro) [mL/min/kg]	IC50 [11] [nM]	EC50 [12] [nM]	EC50 [13] [nM]	selectivity ratio [14]	EC50 [15] [nM]	Ratio EC50 [16]
Cc1cc(C#N)cc(C)c1Oc1nc(Nc2ccc(C#N)cc2)nc2c1ccn2CC(=O)N1CCOCC1	6.8	154	3.1	2300	2.2	inactive	56.7	3	148	5.9	397	155	782	7.7	297	146	
Cc1cc(/C=C/C#N)cc(C)c1Oc1nc(Nc2ccc(C#N)cc2)nc2c1CCCC2	61.3	18	27.4	7200		inactive	77.9	105	40.9	17	45.5	119	68.2	14	513	95.3	2.1
Cc1cc(/C=C/C#N)cc(C)c1Oc1nc(Nc2ccc(C#N)nc2)nc2c1CCCC2	> 8830	12.8	26.5	8800		inactive	> 8830	150	34.8	7.7	47	147	58.8	7.6	1160	> 8830	2.4
